# Data as given in US5824668A, “Formulation for administration of steroid compounds” (priority 1996, dated 1998).
# “Also recorded” adds a separate entry of the source.
# Legend:
# [1] = Optical density of ET and ED dissolved in hydroxypropyl-β-cyclodextrin solutions; assay type: physicochemical
# Experimental: The optical density (OD) of the ET and ED dissolved in hydroxypropyl-β-cyclodextrin solutions was determined at 400 NM against a blank control containing water and set at an OD of 0.0.
# [2] = Dissolution of 5β steroid in water or in hydroxypropyl-β-cyclodextrin solution (Examples I-VII); assay type: physicochemical
# Experimental: 12 milligrams (mg) of Etiocholandione (Steraloids, Inc. New Hampshire) was stirred and shaken with 0.5 ml of water in a test tube.
# A 50% solution of hydroxypropyl-β-cyclodextrin was prepared as follows. 5 grams of pyrogen free hydroxypropyl-β-cyclodextrin (sold under the trade name Encapsin, Amaizo, Inc., Hammond, Ind., USA) was weighed on an analytical scale and placed in a graduated cylinder. Water was added with shaking until the volume reached 10 ml.
# 0.5 ml of the 50% solution of hydroxypropyl-β-cyclodextrin was added to the 0.5 ml of water containing 12 mg of Etiocholandione with additional shaking.
# The previous experiment was repeated using a 50% solution of hydroxypropyl-β-cyclodextrin prepared as in Example 1. 50 mg of Etiocholandione was weighed and placed in a test tube. 2 ml of the 50% solution of hydroxypropyl-β-cyclodextrin was added to the test tube with shaking.
# 4 grams of hydroxypropyl-β-cyclodextrin was dissolved in 7 ml of distilled water to a total volume of 10 ml. Each ml of stock solution contained 0.4 g of solution hydroxypropyl-β-cyclodextrin. 20 mg of 3-β-hydroxy androstan-17-one (β-etiocholanolone) was shaken with 1 ml of the freshly prepared stock solution.
# The same experiment as in example III was performed except that 40 mg of β-etiocholanolone was added to the stock solution of hydroxypropyl-β-cyclodextrin.
# The same experiment as in example III was performed except that 20 mg of Etiocholandione was added to the stock solution of hydroxypropyl-β-cyclodextrin.
# The same experiment as in example V was performed except that 40 mg of Etiocholandione was added to the stock solution of hydroxypropyl-β-cyclodextrin.
# The same experiment as in Example V was performed except 80 mg or 250 mg ED was added to the stock solution.
# [3] = cited from earlier work; for conversion in serum: normal and obese subjects, unpublished data; for oxidation at C-3 position to form etiocholandione: oral or parenteral; for recovery in the urine: parenteral routes
# obese subjects = details: oral, cited from earlier work
# [4] = test system: genetically obese and diabetic mice; details: cited from earlier work; for effectiveness relative to DHEA in preventing development of diabetes: C57BL/KsJ-db/db diabetic mice; for blood sugar / effect on the pancreas (granulation of islet cells) / plasma insulin concentrations: Coleman 1984
# Prader-Willi Syndrome = details: cited from earlier work
# [5] = cited from earlier work; for influence on stabilization of mitomycin-C: acidic aqueous media, pH ranges studied
# [6] = cited from earlier work; for pyrogenic reaction: intramuscular injection
# auto-immune diseases = details: cited from earlier work
# aplastic anemia patients = details: cited from earlier work; for patients with hematologic responses lasting longer than six months: of 43 patients treated with either α- and/or β ET, im
# genetically obese mice = details: supplied in the diet, diabetic genetically obese mice; cited from earlier work
# [7] = dissolved solution in hydroxypropyl-β-cyclodextrin, 400 NM, against water blank
compound,measurement,setting,value
C[C@]12CCC(=O)C[C@H]1CC[C@@H]1[C@@H]2CC[C@]2(C)C(=O)CC[C@@H]12 [ED],optical density (OD),[1]; [7],0.12
same,optical density (OD),"[1]; hydroxypropyl-β-cyclodextrin solution containing 80 mg of ED, 499 NM",1.2
same,dissolution in water,"[2]; 12 mg in 0.5 ml of water, after 5 minutes",Appreciable quantities of compound remained out of solution
same,appearance of solution,[2]; 12 mg in 1 ml of 25% hydroxypropyl-β-cyclodextrin,A clear solution was obtained
same,time to complete dissolution,"[2]; 20 mg in 1 ml stock solution (0.4 g/ml hydroxypropyl-β-cyclodextrin), room temperature, occasional shaking",≤ 6 h
same,time to complete dissolution,[2]; 40 mg in 1 ml stock solution (0.4 g/ml hydroxypropyl-β-cyclodextrin),≤ 24 h
same,appearance of solution,[2]; 50 mg in 2 ml of 50% hydroxypropyl-β-cyclodextrin,clear solution with no accumulation of crystals
same,time to dissolution,"[2]; 50 mg in 2 ml of 50% hydroxypropyl-β-cyclodextrin, with shaking",Within one minute
same,complete dissolution,[2]; 80 mg added to stock solution (0.4 g/ml hydroxypropyl-β-cyclodextrin),In neither case did the ED completely dissolve
same,complete dissolution,[2]; 250 mg added to stock solution (0.4 g/ml hydroxypropyl-β-cyclodextrin),In neither case did the ED completely dissolve
same,serum levels of α ET after administering ED,[3]; in vivo,high levels of α ET can be achieved in the serum
same,conversion in serum,[3],quickly converted almost exclusively to α ET
same,mean fat loss of the initial body fat content,obese subjects; 10-week period,about 5%
same,weight and body fat loss vs placebo,obese subjects; 14 subjects,lost significantly more weight and body fat
same,fat loss,obese subjects; four grams per day,significant fat loss
same,mean weight loss,obese subjects; four grams per day,2.8±5.5 kilograms
same,mean weight loss normalized to body fat,obese subjects; four grams per day,0.5±0.91 kilograms per week per 100 kilograms of body fat
same,subjective or objective side effects,obese subjects,no significant subjective or objective side effects
"C[C@]12CC[C@@H](O)C[C@@H]1CC[C@@H]1[C@@H]2CC[C@]2(C)C(=O)CC[C@@H]12 [androsterone, reference compound]",effectiveness relative to DHEA in preventing development of diabetes,[4],but not androsterone or epiandrosterone
"C[C@]12CC[C@H](O)C[C@@H]1CC[C@@H]1[C@@H]2CC[C@]2(C)C(=O)CC[C@@H]12 [epiandrosterone, reference compound]",effectiveness relative to DHEA in preventing development of diabetes,[4],but not androsterone or epiandrosterone
C[C@]12CC[C@@H](O)C[C@H]1CC[C@@H]1[C@@H]2CC[C@]2(C)C(=O)CC[C@@H]12 [etiocholanolone],weight change in treated individuals,Prader-Willi Syndrome,either weight loss or a decrease in the rate of weight gain
"COC[C@H]1O[C@@H]2O[C@H]3[C@H](O)[C@@H](OC)[C@@H](O[C@H]4[C@H](O)[C@@H](OC)[C@@H](O[C@H]5[C@H](O)[C@@H](OC)[C@@H](O[C@H]6[C@H](O)[C@@H](OC)[C@@H](O[C@H]7[C@H](O)[C@@H](OC)[C@@H](O[C@H]8[C@H](O)[C@@H](OC)[C@@H](O[C@H]1[C@H](O)[C@H]2OC)O[C@@H]8COC)O[C@@H]7COC)O[C@@H]6COC)O[C@@H]5COC)O[C@@H]4COC)O[C@@H]3COC [heptakis-(2,6,-di-O-methyl)-β- cyclodextrin]",influence on stabilization of mitomycin-C,[5],no influence on stabilization of mitomycin-C pH degradation
"C[C@]12C=CC(=O)C=C1CC[C@@H]1[C@@H]2[C@@H](O)C[C@@]2(C)[C@H]1CC[C@]2(O)C(=O)CO [prednisolone, reference compound]",suppression of local irritation,"[6]; minimal doses of 10 mg, with β-ET",sufficient to suppress any local irritation
C[C@]12C=CC(=O)C=C1CC[C@@H]1[C@@H]2C(=O)C[C@@]2(C)[C@H]1CC[C@]2(O)C(=O)CO [prednisone],side effects,auto-immune diseases; in vivo,fluid retention and dramatic loss of bone or osteoporosis
same,symptoms of auto-immune diseases,"auto-immune diseases; ulcerative colitis, Chrone's disease, rheumatoid arthritis",effective in reducing the symptoms
C[C@]12CC[C@@H](O)C[C@H]1CC[C@@H]1[C@@H]2CC[C@]2(C)C(=O)CC[C@@H]12 [α ET],effectiveness relative to DHEA in preventing development of diabetes,[4],four times more effective than DHEA
same,blood sugar,[4],reduce blood sugar
same,effect on the pancreas (granulation of islet cells),[4],protective effect on the pancreas
same,plasma insulin concentrations,[4],increased plasma insulin concentrations
same,patients with hematologic responses lasting longer than six months,aplastic anemia patients,17
same,pyrogenic reaction,[6],acute pyrogenic reactions; also recorded: pyrogenic reaction and notable patient discomfort
same,oxidation at C3 position,"[3]; IV, human subjects, isotopic ratio studies",rapidly oxidized and re-reduced
same,urinary excretion,"[3]; normal individuals, endogenous",3-5 mg per day
same,oxidation at C-3 position to form etiocholandione,[3],rapidly oxidized at the C-3 position
same,recovery in the urine,[3],almost exclusively α ET conjugates
same,anti-obesity effect,genetically obese mice,anti-obesity properties
same,development of obesity,genetically obese mice,can prevent and arrest the development of obesity
same,weight reduction after obesity,genetically obese mice,facilitate weight reduction after obesity
OC[C@H]1O[C@@H]2O[C@H]3[C@H](O)[C@@H](O)[C@@H](O[C@H]4[C@H](O)[C@@H](O)[C@@H](O[C@H]5[C@H](O)[C@@H](O)[C@@H](O[C@H]6[C@H](O)[C@@H](O)[C@@H](O[C@H]7[C@H](O)[C@@H](O)[C@@H](O[C@H]1[C@H](O)[C@H]2O)O[C@@H]7CO)O[C@@H]6CO)O[C@@H]5CO)O[C@@H]4CO)O[C@@H]3CO [α-cyclodextrin],influence on stabilization of mitomycin-C,[5],no influence on stabilization of mitomycin-C pH degradation
"C[C@]12CC[C@H](O)C[C@H]1CC[C@@H]1[C@@H]2CC[C@]2(C)C(=O)CC[C@@H]12 [β ET, 3-β-hydroxy androstan-17-one]",optical density (OD),[1]; [7],0.12
same,effectiveness relative to DHEA in preventing development of diabetes,[4],four times more effective than DHEA
same,blood sugar,[4],reduce blood sugar
same,effect on the pancreas (granulation of islet cells),[4],protective effect on the pancreas
same,plasma insulin concentrations,[4],increased plasma insulin concentrations
same,patients with hematologic responses lasting longer than six months,aplastic anemia patients,17
same,hematologic recovery in non-responders to α ET,aplastic anemia patients; treated with β-ET,three patients who did not respond to α ET had a hematologic recovery
same,pyrogenic reaction,[6],little pyrogenic effect
same,conversion in serum,[3],quickly converted almost exclusively to α ET
same,oxidation at C-3 position to form etiocholandione,[3],rapidly oxidized at the C-3 position
same,recovery in the urine,[3],almost exclusively α ET conjugates
same,anti-obesity effect,genetically obese mice,anti-obesity properties
same,development of obesity,genetically obese mice,can prevent and arrest the development of obesity
same,weight reduction after obesity,genetically obese mice,facilitate weight reduction after obesity
OC[C@H]1O[C@@H]2O[C@H]3[C@H](O)[C@@H](O)[C@@H](O[C@H]4[C@H](O)[C@@H](O)[C@@H](O[C@H]5[C@H](O)[C@@H](O)[C@@H](O[C@H]6[C@H](O)[C@@H](O)[C@@H](O[C@H]7[C@H](O)[C@@H](O)[C@@H](O[C@H]8[C@H](O)[C@@H](O)[C@@H](O[C@H]1[C@H](O)[C@H]2O)O[C@@H]8CO)O[C@@H]7CO)O[C@@H]6CO)O[C@@H]5CO)O[C@@H]4CO)O[C@@H]3CO [β-cyclodextrin],influence on stabilization of mitomycin-C,[5],no influence on stabilization of mitomycin-C pH degradation
OC[C@H]1O[C@@H]2O[C@H]3[C@H](O)[C@@H](O)[C@@H](O[C@H]4[C@H](O)[C@@H](O)[C@@H](O[C@H]5[C@H](O)[C@@H](O)[C@@H](O[C@H]6[C@H](O)[C@@H](O)[C@@H](O[C@H]7[C@H](O)[C@@H](O)[C@@H](O[C@H]8[C@H](O)[C@@H](O)[C@@H](O[C@H]9[C@H](O)[C@@H](O)[C@@H](O[C@H]1[C@H](O)[C@H]2O)O[C@@H]9CO)O[C@@H]8CO)O[C@@H]7CO)O[C@@H]6CO)O[C@@H]5CO)O[C@@H]4CO)O[C@@H]3CO [γ-cyclodextrin],stabilizing effect on mitomycin,[5]; acidic media at pH above 1,measurable stabilizing effect on mitomycin
dimethyl-β- cyclodextrin,influence on stabilization of mitomycin-C,[5],no influence on stabilization of mitomycin-C pH degradation
